Source: PubChem BioAssay AID2060500 (Molecular Pharmacology Branch, DTP, NCI, 2025)

System: 596521-263-R-J1-PDC complex spheroids, viability % of control
Assay: Anticancer human tumor 596521-263-R-J1-PDC patient-derived soft tissue sarcoma cell line growth inhibition [GQUAD]
Settings: for IC50: curve of first compound; for viability, T/C: stronger effect = lower value
From the text: DNA G-quadruplex Stabilizer Agents in Combinations in Complex Spheroids
A high-throughput screen of multi-cell type tumor spheroids was designed to identify active combinations of DNA G-quadruplex stabilizer agents and targeted small molecules. Complex spheroids include a stromal component modeled by human endothelial cells (HUVEC) and fibroblasts modeled by human mesenchymal stem cells (MSCs). The concentration ranges selected for each drug and investigational agent were based upon clinically achievable concentrations if the clinical Cmax of the agent was known.
Compounds. The drugs and investigational agents: pidnarulex (CX-5461; NSC782164), APTO-253 (NSC789042), BRACO-19 (NSC847499), peposertib (NSC802822), ceralasertib (NSC780249), elimusertib (NSC800525), camonsertib (NSC841442), AZD-1390 (NSC803789), olaparib (NSC753686), talazoparib (NSC767125), ART-558 (NSC835418), sotorasib (NSC818433), MRTX-1133 (NSC836407), SN-38 (NSC673596), topotecan (NSC609699), etoposide (NSC141540), doxorubicin (NSC123127), gemcitabine (NSC613327), 5-fluorouracil (NSC19893), paclitaxel (NSC125973), vemurafenib (NSC761431), panobinostat (NSC761190), R-306465 (JNJ-16241199; NSC773264), adavosertib (NSC754352), TP-3654 (NSC805149), carboplatin (NSC241240), KSQ-4279 (NSC840948), and staurosporine (NSC755774) were obtained from the National Cancer Institute (NCI) Developmental Therapeutics Program Chemical Repository (34). The FDA-approved anticancer drug set is available from the NCI Developmental Therapeutics Program. […] The stock solutions were prepared in dimethyl sulfoxide (DMSO, Sigma-Aldrich, St. Louis, MO, cat. D2650) at 800-fold the tested concentration and stored at -70 degrees C prior to their use. All drugs and investigational agents were tested over a range starting from a high concentration at or near the clinical Cmax and decreasing in half-log increments. If the clinical Cmax for an agent had not been determined, the highest concentration tested was 10 microM.
2.3 Cell Culture. All cells were maintained in an incubator at 37 degrees C and 5% CO2 with 95% humidity. The PDC lines were cultured according to standard operating procedures established by the NCI PDMR. All PDCs were thawed and cultured in Matrigel-coated flasks prepared with a working solution of 1X Ham's F-12 nutrient mix, without supplementation (Invitrogen, cat. 11765054), 100 U/mL penicillin-streptomycin (Invitrogen, cat. 15140122), and 2.5% Matrigel (Corning Inc., cat. 354248) for the first three passages. The 857933-349-R-J2-PDC line was cultured in 6C/Colon 1B media, which includes advanced DMEM/F-12 (Thermo Fisher Scientific, cat. 12634028), 10 mM HEPES (Thermo Fisher Scientific, cat. 15630080), 1X GlutaMAX supplement (Thermo Fisher Scientific, cat. 35050061), 0.1 mg/mL primocin (InvivoGen, cat. ant-pm-2), 10% defined fetal bovine serum, heat inactivated (HyClone Laboratories Inc., cat. SH30070.03HI), 50% L-WRN conditioned media (ATCC, cat. CRL-3276), 1.25 mM N-Acetyl-L-cysteine (Sigma-Aldrich, cat. A9165), 10 mM nicotinamide (Sigma-Aldrich, cat. N0636), 1X B-27 supplement (Thermo Fisher Scientific, cat. 17504044), 1X N-2 supplement (Thermo Fisher Scientific, cat. 17502048), 10 microM Y-27632 dihydrochloride (Tocris Bioscience, cat. 1254), and 50 ng/mL human EGF recombinant protein (Thermo Fisher Scientific, cat. PHG0311). The 485176-168-R4-J1-PDC line was cultured in Panc media, which includes all 6C/Colon 1B media components plus 100 ng/mL human FGF-10 (Thermo Fisher Scientific, cat. 100-26), 500 nM SB-431542 (Selleckchem, cat. S1067), and gastrin (Tocris, cat. 3006).
[…]

[1] = second compound 0.0316 µM, first compound 0.0316 µM
[2] = second compound 0.0316 µM, first compound 0.316 µM
[3] = second compound 0.1 µM, first compound 0.0316 µM
[4] = second compound 0.1 µM, first compound 0.316 µM
[5] = second compound 0.316 µM, first compound 0.0316 µM
[6] = second compound 0.316 µM, first compound 0.316 µM
[7] = second compound 1 µM, first compound 0.0316 µM
[8] = second compound 1 µM, first compound 0.316 µM
[9] = second compound 3.16 µM, first compound 0.0316 µM
[10] = second compound 3.16 µM, first compound 0.316 µM
[11] = second compound 10 µM, first compound 0.0316 µM
[12] = second compound 10 µM, first compound 0.316 µM
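Further: spheroids exposed to drugs for 7 days before viability reading.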

Cn1ncnc1[C@H]1c2n[nH]c(=O)c3cc(F)cc(c23)N[C@@H]1c1ccc(F)cc1 + CN(C)c1ccc(Nc2c3ccc(NC(=O)CCN4CCCC4)cc3nc3cc(NC(=O)CCN4CCCC4)ccc23)cc1
IC50 (second compound 0.0316 µM): > 0.316 µM
IC50 (second compound 0.1 µM): > 0.316 µM
IC50 (second compound 0.316 µM): > 0.316 µM
IC50 (second compound 1 µM): > 0.316 µM
IC50 (second compound 3.16 µM): > 0.316 µM
IC50 (second compound 10 µM): > 0.316 µM
viability, T/C (second compound 0.0316 µM, first compound 0.000999 µM): 106%
viability, T/C (second compound 0.0316 µM, first compound 0.00316 µM): 89.4%
viability, T/C (second compound 0.0316 µM, first compound 0.00999 µM): 90.6%
viability, T/C [1]: 84.8%
viability, T/C (second compound 0.0316 µM, first compound 0.0999 µM): 99.6%
viability, T/C [2]: 80.5%
viability, T/C (second compound 0.1 µM, first compound 0.000999 µM): 98.4%
viability, T/C (second compound 0.1 µM, first compound 0.00316 µM): 92.1%
viability, T/C (second compound 0.1 µM, first compound 0.00999 µM): 96.6%
viability, T/C [3]: 94.7%
viability, T/C (second compound 0.1 µM, first compound 0.0999 µM): 86.6%
viability, T/C [4]: 93.5%
viability, T/C (second compound 0.316 µM, first compound 0.000999 µM): 104%
viability, T/C (second compound 0.316 µM, first compound 0.00316 µM): 97.9%
viability, T/C (second compound 0.316 µM, first compound 0.00999 µM): 102%
viability, T/C [5]: 94.6%
viability, T/C (second compound 0.316 µM, first compound 0.0999 µM): 83.4%
viability, T/C [6]: 80%
viability, T/C (second compound 1 µM, first compound 0.000999 µM): 92.4%
viability, T/C (second compound 1 µM, first compound 0.00316 µM): 89.5%
viability, T/C (second compound 1 µM, first compound 0.00999 µM): 99.8%
viability, T/C [7]: 85.1%
viability, T/C (second compound 1 µM, first compound 0.0999 µM): 95%
viability, T/C [8]: 76.1%
viability, T/C (second compound 3.16 µM, first compound 0.000999 µM): 94%
viability, T/C (second compound 3.16 µM, first compound 0.00316 µM): 97%
viability, T/C (second compound 3.16 µM, first compound 0.00999 µM): 98.4%
viability, T/C [9]: 85.5%
viability, T/C (second compound 3.16 µM, first compound 0.0999 µM): 92.6%
viability, T/C [10]: 80.8%
viability, T/C (second compound 10 µM, first compound 0.000999 µM): 70.1%
viability, T/C (second compound 10 µM, first compound 0.00316 µM): 58.9%
viability, T/C (second compound 10 µM, first compound 0.00999 µM): 67.3%
viability, T/C [11]: 64.9%
viability, T/C (second compound 10 µM, first compound 0.0999 µM): 61.5%
viability, T/C [12]: 60.2%

O=C(c1cc(Cc2n[nH]c(=O)c3ccccc23)ccc1F)N1CCN(C(=O)C2CC2)CC1 + CN(C)c1ccc(Nc2c3ccc(NC(=O)CCN4CCCC4)cc3nc3cc(NC(=O)CCN4CCCC4)ccc23)cc1
IC50 (second compound 0.0316 µM): > 10 µM
IC50 (second compound 0.1 µM): > 10 µM
IC50 (second compound 0.316 µM): > 10 µM
IC50 (second compound 1 µM): > 10 µM
IC50 (second compound 3.16 µM): > 10 µM
IC50 (second compound 10 µM): > 10 µM
viability, T/C [1]: 112%
viability, T/C (second compound 0.0316 µM, first compound 0.1 µM): 106%
viability, T/C [2]: 101%
viability, T/C (second compound 0.0316 µM, first compound 1 µM): 104%
viability, T/C (second compound 0.0316 µM, first compound 3.16 µM): 86.2%
viability, T/C (second compound 0.0316 µM, first compound 10 µM): 68%
viability, T/C [3]: 108%
viability, T/C (second compound 0.1 µM, first compound 0.1 µM): 89.3%
viability, T/C [4]: 97.4%
viability, T/C (second compound 0.1 µM, first compound 1 µM): 99%
viability, T/C (second compound 0.1 µM, first compound 3.16 µM): 88.3%
viability, T/C (second compound 0.1 µM, first compound 10 µM): 67.9%
viability, T/C [5]: 114%
viability, T/C (second compound 0.316 µM, first compound 0.1 µM): 103%
viability, T/C [6]: 101%
viability, T/C (second compound 0.316 µM, first compound 1 µM): 103%
viability, T/C (second compound 0.316 µM, first compound 3.16 µM): 88.5%
viability, T/C (second compound 0.316 µM, first compound 10 µM): 74.3%
viability, T/C [7]: 108%
viability, T/C (second compound 1 µM, first compound 0.1 µM): 98.2%
viability, T/C [8]: 109%
viability, T/C (second compound 1 µM, first compound 1 µM): 99.2%
viability, T/C (second compound 1 µM, first compound 3.16 µM): 94.6%
viability, T/C (second compound 1 µM, first compound 10 µM): 69.2%
viability, T/C [9]: 110%
viability, T/C (second compound 3.16 µM, first compound 0.1 µM): 89.6%
viability, T/C [10]: 90.8%
viability, T/C (second compound 3.16 µM, first compound 1 µM): 89.9%
viability, T/C (second compound 3.16 µM, first compound 3.16 µM): 91%
viability, T/C (second compound 3.16 µM, first compound 10 µM): 70.8%
viability, T/C [11]: 70.4%
viability, T/C (second compound 10 µM, first compound 0.1 µM): 62.2%
viability, T/C [12]: 76.7%
viability, T/C (second compound 10 µM, first compound 1 µM): 72.4%
viability, T/C (second compound 10 µM, first compound 3.16 µM): 66.5%
viability, T/C (second compound 10 µM, first compound 10 µM): 59.9%
